# Where “and” joins values, the source holds several entries; their conditions need not be identical. Equal entries are not always repeated. Marks after values point to notes of the source that are not given here.
# How the values were obtained:
# [1] = target: GluN1/GluN2D (Rattus norvegicus, UniProt P35439+Q62645); assay: Two-electrode voltage-clamp recordings, Xenopus laevis oocytes, GluN1/GluN2D; assay type: cell-based; parameters: GluN2B (NM_012574.1), GluN2C (NM_012575.3), and GluN2D (NM_022797.2) were provided by; expressed in transfected cells; host or cells: Xenopus laevis oocytes (cRNA injection); conditions: 100 μM glutamate, 30 μM glycine; for remaining activity at 30 µM: 30 μM test compound, mean ± SEM, read-out: I 30 μM / I control GluN2D; for IC50: read-out: IC50 GluN2D [95% CI]
# Protocol: (§1) All target compounds were evaluated for NMDAR antagonism using two-electrode voltage-clamp recordings from Xenopus laevis oocytes coexpressing recombinant GluN1 and GluN2A-D subunits (Table 1).[32],[42],[33] All analogues were assessed as either a racemic (2b, 2e–2r) or diastereomeric (2d) mixture to simplify purification and streamline in vitro analysis. […] Moreover, as illustrated by the significant loss of NMDAR activity observed with nitrile 2e, the DQP allosteric site necessitated an H-bond donor/acceptor relationship at the carboxylate position. […] The loss of NMDAR activity observed with the trifluoro analogue 2j (Table S1) reinforced the necessity for an H-bond donor/acceptor relationship to maintain allosteric binding and established that fluorine substitution alone is ineffective. […] A single methyl substitution of the amide in compound 2q improved selectivity against GluN2A and had similar potency as 2a, whereas dual methyl substitution reduced potency (2r). We expect that this is likely due to the ability of the […] of the amide to accept hydrogen bonds while the amide can readily donate a proton.
# (§2) Unfertilized Xenopus laevis oocytes were obtained from Ecocyte (Austin, TX), or ovaries were purchased from Xenopus 1 (Dexter, MI) and oocytes prepared as previously described.[42],[47] Two-electrode voltage-clamp recordings were performed on oocytes expressing recombinant rat GluN1/GluN2A, GluN1/GluN2B, GluN1/GluN2C, or GluN1/GluN2D. cDNAs for rat GluN1-1a (referred to as GluN1; NCBI Reference Sequence NM_017010.2), GluN2A (NM_012573.4), GluN2B (NM_012574.1), GluN2C (NM_012575.3), and GluN2D (NM_022797.2) were provided by Dr. S. Heinemann from the Salk Institute, Dr. S. Nakanishi from Kyoto University, and Dr. P. Seeburg from the University of Heidelberg. Oocyte isolation, cRNA synthesis, and cRNA injections were performed as previously described.[32],[33],[47] Briefly, Xenopus laevis oocytes were injected with 5–10 ng of cRNA in RNase-free water with the GluN1:GluN2 ratio ranging from 1:1 to 1:5. Oocytes were incubated at 15–19 °C in Barth’s solution consisting of (in mM) 88 NaCl, 1 KCl, 2.4 NaHCO3, 10 HEPES, 0.82 MgSO4, 0.33 Ca(NO3)2, and 0.41 CaCl2 supplemented with 100 μg/mL gentamycin, 40 μg/mL streptomycin, and 50 μg/mL penicillin. Recordings were performed 2–4 days after injection with extracellular recording solution containing (in mM) 90 NaCl, 1 KCl, 10 HEPES, 0.5 BaCl2, and 0.01 EDTA at pH 7.4 adjusted with NaOH. To prevent a gradual increase in current response over the course of the experiment, some oocytes expressing GluN1/GluN2A were injected with 20–50 nL of 2–50 mM K-BAPTA. Concentration–response curves for test compounds were generated by applying a maximally effective concentration of glutamate (100 μM) and glycine (30 μM), followed by glutamate and glycine with variable concentrations of test compounds up to 30 μM. The test compounds were prepared as 20 mM stock solutions in DMSO and diluted to the final concentration in recording solution. The DMSO content was 0.05–0.5% (v/v). […] Methods for off-target analysis are given in the Supporting Information.
# (§3) Confidence intervals were determined for the log(IC50). The time course of relaxation during inhibitor application or deactivation following rapid removal of NMDA or glutamate was fitted by the equation [drawing 5] 2
# [2] = target: T1, GluN1/GluN2B (Rattus norvegicus, UniProt P35439+Q00960); assay: Two-electrode voltage-clamp recordings, Xenopus laevis oocytes, GluN1/GluN2B; assay type: cell-based; conditions: 100 μM glutamate, 30 μM glycine; for remaining activity at 30 µM: 30 μM test compound, mean ± SEM, read-out: I 30 μM / I control GluN2B; for IC50: read-out: IC50 GluN2B [95% CI]
# T1 construct: GluN2B (NM_012574.1), GluN2C (NM_012575.3), and GluN2D (NM_022797.2) were provided by; expressed in transfected cells; host or cells: Xenopus laevis oocytes (cRNA injection)
# Protocol: as §1, §2, §3
# [3] = target: T2, CYP2D6 (Homo sapiens, UniProt P10635); assay: Fluorometric CYP450 enzyme inhibition assay, CYP2D6; assay type: in vitro ADME; conditions: n = 2 (2k n = 4)
# T2 construct: purchased Corning; host or cells: insect cells (microsomes)
# [4] = target: GluN1/GluN2D (Rattus norvegicus, UniProt Q62645); assay: Two-electrode voltage-clamp recordings, Xenopus laevis oocytes, GluN1/GluN2D; assay type: cell-based; parameters: GluN2B (NM_012574.1), GluN2C (NM_012575.3), and GluN2D (NM_022797.2) were provided by; expressed in transfected cells; host or cells: Xenopus laevis oocytes (cRNA injection); conditions: for I / I control GluN2D: tested at 10 μM (footnote b); for I / I control GluN2D / I3 μM/Icontrol GluN2D: 100 μM glutamate, 30 μM glycine; for Selectivity 2A IC50 / 2D IC50: GluN2D over GluN2A; for Selectivity 2B IC50 / 2D IC50: GluN2D over GluN2B; for I3 μM/Icontrol GluN2D: tested at 3 μM
# Protocol: as §1, §2, §3
# [5] = target: T3, GluN1/GluN2B (Rattus norvegicus, UniProt Q00960); assay: Two-electrode voltage-clamp recordings, Xenopus laevis oocytes, GluN1/GluN2B; assay type: cell-based; conditions: mean ± SEM; for I / I control GluN2B: tested at 10 μM (footnote b); for I / I control GluN2B / I3 μM/Icontrol GluN2B: 100 μM glutamate, 30 μM glycine; for I3 μM/Icontrol GluN2B: tested at 3 μM
# T3 construct: GluN2B (NM_012574.1), GluN2C (NM_012575.3), and GluN2D (NM_022797.2) were provided by; expressed in transfected cells; host or cells: Xenopus laevis oocytes (cRNA injection)
# Protocol: as §1, §2, §3
# T1 sequence (Q00960 27-1482, other chains not shown): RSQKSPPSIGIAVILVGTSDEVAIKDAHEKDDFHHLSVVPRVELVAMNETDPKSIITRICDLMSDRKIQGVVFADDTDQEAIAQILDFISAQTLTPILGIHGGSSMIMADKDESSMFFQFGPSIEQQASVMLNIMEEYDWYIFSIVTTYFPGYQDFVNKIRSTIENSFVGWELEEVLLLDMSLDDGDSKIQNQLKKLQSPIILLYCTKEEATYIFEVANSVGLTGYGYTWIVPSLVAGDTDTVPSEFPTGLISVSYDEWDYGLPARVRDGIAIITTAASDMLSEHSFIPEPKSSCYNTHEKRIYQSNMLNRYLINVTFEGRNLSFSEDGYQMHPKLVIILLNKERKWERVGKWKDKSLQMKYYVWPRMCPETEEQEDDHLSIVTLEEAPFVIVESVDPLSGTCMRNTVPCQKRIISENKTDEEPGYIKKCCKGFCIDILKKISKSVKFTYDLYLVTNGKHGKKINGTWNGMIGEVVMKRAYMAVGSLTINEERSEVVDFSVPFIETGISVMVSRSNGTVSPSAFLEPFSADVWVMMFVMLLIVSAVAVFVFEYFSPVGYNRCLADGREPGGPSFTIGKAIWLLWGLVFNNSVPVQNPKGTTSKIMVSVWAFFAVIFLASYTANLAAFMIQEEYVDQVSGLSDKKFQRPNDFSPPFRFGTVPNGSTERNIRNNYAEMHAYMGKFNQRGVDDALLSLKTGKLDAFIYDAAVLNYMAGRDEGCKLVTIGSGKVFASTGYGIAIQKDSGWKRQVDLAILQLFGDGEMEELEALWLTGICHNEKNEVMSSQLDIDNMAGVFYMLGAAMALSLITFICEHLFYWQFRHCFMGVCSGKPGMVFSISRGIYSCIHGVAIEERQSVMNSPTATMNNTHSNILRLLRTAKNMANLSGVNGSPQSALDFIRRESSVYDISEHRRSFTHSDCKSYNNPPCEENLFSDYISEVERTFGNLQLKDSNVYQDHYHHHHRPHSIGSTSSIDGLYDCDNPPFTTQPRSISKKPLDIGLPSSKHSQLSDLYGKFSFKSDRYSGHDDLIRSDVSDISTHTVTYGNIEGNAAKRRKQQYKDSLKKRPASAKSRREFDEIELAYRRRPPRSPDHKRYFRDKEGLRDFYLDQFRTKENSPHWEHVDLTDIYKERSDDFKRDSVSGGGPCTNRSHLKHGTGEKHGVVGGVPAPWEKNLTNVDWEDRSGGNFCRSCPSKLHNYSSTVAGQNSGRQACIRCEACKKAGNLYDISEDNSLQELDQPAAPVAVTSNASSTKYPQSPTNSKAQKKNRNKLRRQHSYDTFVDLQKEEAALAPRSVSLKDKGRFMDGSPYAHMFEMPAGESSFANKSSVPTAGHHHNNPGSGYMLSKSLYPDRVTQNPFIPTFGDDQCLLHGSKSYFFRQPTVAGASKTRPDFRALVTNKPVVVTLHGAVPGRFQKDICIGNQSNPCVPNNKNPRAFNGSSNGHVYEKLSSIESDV
# T3 sequence (Q00960 27-1482, other chains not shown): as above
# GluN1/GluN2D (Rattus norvegicus, UniProt Q62645), sequence (Q62645 28-1323, other chains not shown): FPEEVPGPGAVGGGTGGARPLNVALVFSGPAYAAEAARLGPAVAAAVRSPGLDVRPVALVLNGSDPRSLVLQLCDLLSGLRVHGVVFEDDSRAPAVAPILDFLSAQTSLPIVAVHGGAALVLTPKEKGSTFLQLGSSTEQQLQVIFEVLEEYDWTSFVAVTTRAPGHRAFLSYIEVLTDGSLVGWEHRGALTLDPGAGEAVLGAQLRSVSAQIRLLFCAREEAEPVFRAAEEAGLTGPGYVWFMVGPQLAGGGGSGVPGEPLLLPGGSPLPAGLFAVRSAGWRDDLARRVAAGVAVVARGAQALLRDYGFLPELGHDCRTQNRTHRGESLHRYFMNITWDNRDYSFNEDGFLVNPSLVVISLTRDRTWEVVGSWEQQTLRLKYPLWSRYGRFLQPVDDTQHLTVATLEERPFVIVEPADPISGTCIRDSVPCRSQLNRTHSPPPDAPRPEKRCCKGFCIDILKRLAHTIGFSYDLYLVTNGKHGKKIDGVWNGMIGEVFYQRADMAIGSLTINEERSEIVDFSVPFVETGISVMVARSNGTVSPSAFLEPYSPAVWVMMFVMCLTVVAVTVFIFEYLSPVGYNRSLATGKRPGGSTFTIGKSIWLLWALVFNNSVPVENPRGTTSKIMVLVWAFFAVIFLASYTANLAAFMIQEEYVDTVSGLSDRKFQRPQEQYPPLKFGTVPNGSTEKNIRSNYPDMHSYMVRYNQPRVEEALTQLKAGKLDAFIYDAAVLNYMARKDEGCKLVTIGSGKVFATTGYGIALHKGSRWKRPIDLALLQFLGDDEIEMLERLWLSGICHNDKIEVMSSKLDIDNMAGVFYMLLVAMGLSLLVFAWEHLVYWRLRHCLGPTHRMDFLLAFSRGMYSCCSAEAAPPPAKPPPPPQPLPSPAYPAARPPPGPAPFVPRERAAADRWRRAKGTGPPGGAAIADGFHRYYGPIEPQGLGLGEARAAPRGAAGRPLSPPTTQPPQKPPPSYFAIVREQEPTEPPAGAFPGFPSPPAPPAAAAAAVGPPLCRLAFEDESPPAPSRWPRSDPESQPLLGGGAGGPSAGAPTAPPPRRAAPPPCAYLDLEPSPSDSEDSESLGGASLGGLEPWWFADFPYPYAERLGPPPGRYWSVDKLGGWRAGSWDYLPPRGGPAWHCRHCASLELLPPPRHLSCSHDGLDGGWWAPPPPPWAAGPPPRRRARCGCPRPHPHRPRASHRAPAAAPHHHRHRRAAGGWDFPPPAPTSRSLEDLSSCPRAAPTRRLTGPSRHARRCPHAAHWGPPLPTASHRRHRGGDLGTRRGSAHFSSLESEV
# GluN1/GluN2D (Rattus norvegicus, UniProt P35439+Q62645), sequence (Q62645 28-1323, other chains not shown): as above
# T2 sequence (P10635 whole entry): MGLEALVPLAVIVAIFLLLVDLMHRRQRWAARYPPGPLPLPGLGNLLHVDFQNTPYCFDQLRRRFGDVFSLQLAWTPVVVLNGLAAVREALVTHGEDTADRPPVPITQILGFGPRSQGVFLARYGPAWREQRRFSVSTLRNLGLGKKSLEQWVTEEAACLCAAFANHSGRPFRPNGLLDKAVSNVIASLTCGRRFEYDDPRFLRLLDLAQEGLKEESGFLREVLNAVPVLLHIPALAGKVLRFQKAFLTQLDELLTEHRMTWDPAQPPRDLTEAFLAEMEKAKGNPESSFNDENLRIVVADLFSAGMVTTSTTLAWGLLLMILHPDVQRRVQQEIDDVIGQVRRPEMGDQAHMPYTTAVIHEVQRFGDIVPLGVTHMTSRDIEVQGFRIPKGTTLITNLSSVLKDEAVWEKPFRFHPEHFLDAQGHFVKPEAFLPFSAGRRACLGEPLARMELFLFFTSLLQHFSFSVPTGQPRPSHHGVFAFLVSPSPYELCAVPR
remaining activity at 30 µM [1],remaining activity at 30 µM [2],IC50 [3],IC50 [1],Selectivity 2A IC50 / 2D IC50 [4],Selectivity 2B IC50 / 2D IC50 [4],IC50 [2],Compound,further results
96 ± 0.53%,103 ± 2.1%,> 20 µM,–,–,–,–,O=C(CC(F)(F)C(=O)N1N=C(c2c(-c3ccc(Cl)cc3)c3ccccc3[nH]c2=O)CC1c1ccc(Cl)cc1)OCc1ccccc1 (stereo not shown) [2p],–
–,–,> 20 µM,1.4 µM,–,–,–,CN(C)C(=O)CC(F)(F)C(=O)N1N=C(c2c(-c3ccc(Cl)cc3)c3ccccc3[nH]c2=O)CC1c1ccc(Cl)cc1 (stereo not shown) [2r],"I / I control GluN2D ([4]; mean ± SEM): 19 ± 1.6 ^b (3,14) %; I / I control GluN2B [5]: 78 ± 4.2 ^b (4,22) %"
–,–,–,0.035 µM,134 fold,457 fold,16 µM,O=C(O)CC(F)(F)C(=O)N1N=C(c2c(-c3ccc(Cl)cc3)c3ccccc3[nH]c2=O)C[C@H]1c1ccc(Cl)cc1 [(S)-(−)-2i],"% control GluN1/GluN2D ([4]; 1 µM compound, 100 µM glutamate, 30 µM glycine, mean ± SEM): 4.3 ± 0.73%; fold more potent than (S)-2a ([4]; abstract): 5 fold; I3 μM/Icontrol GluN2D ([4]; mean ± SEM): 3.8 ± 0.60 (4, 25) %; % control GluN1/GluN2B ([5]; 1 µM compound, 100 µM glutamate, 30 µM glycine): 90 ± 3.5%; I3 μM/Icontrol GluN2B [5]: 89 ± 6.2 (3, 18) %"
87 ± 0.8%,97 ± 2%,> 20 µM,–,–,–,–,CCOC(=O)CC(F)(F)C(=O)N1N=C(c2c(-c3ccc(Cl)cc3)c3ccccc3[nH]c2=O)CC1c1ccc(Cl)cc1 (stereo not shown) [2l],–
–,–,> 20 µM,–,–,–,–,CC(C)(C)COC(=O)CC(F)(F)C(=O)N1N=C(c2c(-c3ccc(Cl)cc3)c3ccccc3[nH]c2=O)CC1c1ccc(Cl)cc1 (stereo not shown) [2o],I / I control GluN2D ([4]; mean ± SEM): 82 ± 0.7%; I / I control GluN2B [5]: 94 ± 1.0%
–,–,18 ± 0.8 µM,–,–,–,–,O=C(O)CCC(=O)N1N=C(c2c(-c3ccc(Cl)cc3)c3ccccc3[nH]c2=O)CC1c1ccc(Cl)cc1 (stereo not shown) [2a],–
–,–,> 20 µM,0.41 µM,90 fold,49 fold,20 µM,CNC(=O)CC(F)(F)C(=O)N1N=C(c2c(-c3ccc(Cl)cc3)c3ccccc3[nH]c2=O)CC1c1ccc(Cl)cc1 (stereo not shown) [2q],"I / I control GluN2D ([4]; mean ± SEM): 12 ± 1.5 ^b (3, 18) %; I / I control GluN2B [5]: 81 ± 8.7 ^b (3, 10) %"
–,–,> 20 µM,0.24 µM,24 fold,13 fold,3.1 µM,NC(=O)CC(F)(F)C(=O)N1N=C(c2c(-c3ccc(Cl)cc3)c3ccccc3[nH]c2=O)CC1c1ccc(Cl)cc1 (stereo not shown) [2k],"I3 μM/Icontrol GluN2D ([4]; mean ± SEM): 16 ± 2.3 ^b (3,17) %; I3 μM/Icontrol GluN2B [5]: 28 ± 4.5 ^b (3,10) %"
92 ± 2.7%,92 ± 2.1%,> 20 µM,–,–,–,–,O=C(CC(F)(F)C(=O)N1N=C(c2c(-c3ccc(Cl)cc3)c3ccccc3[nH]c2=O)CC1c1ccc(Cl)cc1)OCC1CC1 (stereo not shown) [2n],–
–,–,> 20 µM,0.13 µM,43 fold,123 fold,16 µM,O=C(O)CC(F)(F)C(=O)N1N=C(c2c(-c3ccc(Cl)cc3)c3ccccc3[nH]c2=O)CC1c1ccc(Cl)cc1 (stereo not shown) [2i],"I3 μM/Icontrol GluN2D ([4]; mean ± SEM): 12 ± 1.8% and 12 ± 1.8 ^b (2,16) %; I3 μM/Icontrol GluN2D ([4]; mean ± SEM, listed as racemic 2i): 12 ± 1.8 (2, 16) %; I3 μM/Icontrol GluN2B [5]: 78 ± 2.9% and 78 ± 2.9 ^b (2,10) %; I3 μM/Icontrol GluN2B ([5]; listed as racemic 2i): 78 ± 2.9 (2, 10) %"
92 ± 3.1%,88 ± 1.3%,> 20 µM,–,–,–,–,CC(C)OC(=O)CC(F)(F)C(=O)N1N=C(c2c(-c3ccc(Cl)cc3)c3ccccc3[nH]c2=O)CC1c1ccc(Cl)cc1 (stereo not shown) [2m],–

# Reference: PMC10485906, “Development of a Dihydroquinoline–Pyrazoline GluN2C/2D-Selective Negative Allosteric Modulator of the N-Methyl-D-aspartate Receptor” (ACS Chemical Neuroscience, 2023)
